Measured values from ChEMBL document CHEMBL4818987, “Recent advances of podophyllotoxin/epipodophyllotoxin hybrids in anticancer activity, mode of action, and structure-activity relationship: An update (2010-2020)” (Eur J Med Chem, 2020).
pIC50: −log10 of the molar value.

Columns and labels:
[1] = Cytotoxicity against human MUM-2B cells incubated for 72 hrs by CCK8 assay; format: functional, cell-based
[2] = Cytotoxicity against human C918 cells incubated for 72 hrs by CCK8 assay; format: functional, cell-based; details: C918, 72 h
[3] = Potency index, ratio of etoposide IC50 to test compound IC50 for antiproliferative activity against human MUM-2B cells; format: functional
[4] = Potency index, ratio of etoposide IC50 to test compound IC50 for antiproliferative activity against human C918 cells; format: functional
[5] = Terminal half life in Sprague-Dawley rat at 2.5 mg/kg, iv measured after 5 to 1440 mins by LC-MS/MS analysis; format: ADME, organism-based; details: in vivo, time 5-1440 min, read-out: beta t1/2 (converted)
[6] = MRT in Sprague-Dawley rat at 2.5 mg/kg, iv measured after 5 to 1440 mins by LC-MS/MS analysis; format: ADME, organism-based; details: in vivo, time 5-1440 min
[7] = Mean initial plasma concentration in Sprague-Dawley rat at 2.5 mg/kg, iv measured after 5 to 1440 mins by LC-MS/MS analysis; format: ADME, organism-based
[8] = AUCinfinity in Sprague-Dawley rat at 2.5 mg/kg, iv measured after 5 to 1440 mins by LC-MS/MS analysis; format: ADME, organism-based; set-up: route intravenous, dose 2.5 mg/kg, time upper 1440 min, time lower 5 min; details: in vivo
[9] = Plasma clearance in Sprague-Dawley rat at 2.5 mg/kg, iv measured after 5 to 1440 mins by LC-MS/MS analysis; format: ADME, organism-based; set-up: dose 2.5 mg/kg, time upper 1440 min, time lower 5 min
[10] = tested on: B16; test: Antiproliferative activity against […] cells incubated for 48 to 72 hrs by MTT assay; format: functional, cell-based; details: Mus musculus
[11] = tested on: NCI-H1993; test: Antiproliferative activity against human NCI-H1993 cells incubated for 48 to 72 hrs by MTT assay; format: functional, cell-based
[12] = tested on: MKN-45; test: Antiproliferative activity against human MKN-45 cells incubated for 48 to 72 hrs by MTT assay; format: functional, cell-based
[13] = tested on: HepG2; test: Antiproliferative activity against human HepG2 cells incubated for 48 to 72 hrs by MTT assay; format: functional, cell-based
[14] = tested on: K562; test: Antiproliferative activity against human K562 cells incubated for 72 hrs by CCK8 assay; format: functional, cell-based; details: K562, 72 h
[15] = tested on: MKN-45; test: Antiproliferative activity against human MKN-45 cells incubated for 72 hrs by MTT assay; format: functional, cell-based; details: time 72 hrs
[16] = tested on: HeLa; test: Antiproliferative activity against human HeLa cells incubated for 48 hrs by MTT assay; format: functional, cell-based
[17] = tested on: K562; test: Antiproliferative activity against human K562 cells incubated for 48 hrs by MTT assay; format: functional, cell-based; details: K562, 48 h
[18] = tested on: A549; test: Antiproliferative activity against human A549 cells incubated for 48 hrs by MTT assay; format: functional, cell-based; details: A549, 48 h
[19] = tested on: MCF7; test: Antiproliferative activity against human MCF7 cells incubated for 48 hrs by MTT assay; format: functional, cell-based; details: MCF7, 48 h
[20] = tested on: HepG2; test: Antiproliferative activity against human HepG2 cells incubated for 48 hrs by MTT assay; format: functional, cell-based; details: HepG2, 48 h
[21] = tested on: SK-OV-3; test: Antiproliferative activity against human SKOV3 cells incubated for 48 hrs by MTT assay; format: functional, cell-based; details: SK-OV-3, 48 h
[22] = tested on: BGC-823; test: Antiproliferative activity against human BGC-823 cells incubated for 48 hrs by MTT assay; format: functional, cell-based; details: BGC-823, 48 h
[23] = tested on: MGC-803; test: Antiproliferative activity against human MGC-803 cells incubated for 48 hrs by MTT assay; format: functional, cell-based; details: MGC-803, 48 h
[24] = tested on: K562; test: Antiproliferative activity against human K562 cells incubated for 72 hrs by CCK8 method; format: functional, cell-based; details: K562, 72 h
[25] = tested on: SW480; test: Antiproliferative activity against human SW480 cells incubated for 48 hrs by MTT assay; format: functional, cell-based; details: SW480, 48 h
[26] = tested on: SMMC-7721; test: Antiproliferative activity against human SMMC-7721 cells incubated for 48 hrs by MTT assay; format: functional, cell-based; details: SMMC-7721, 48 h
[27] = tested on: HL-60; test: Antiproliferative activity against human HL-60 cells incubated for 48 hrs by MTT assay; format: functional, cell-based; details: HL-60, 48 h
[28] = tested on: HeLa; test: Antiproliferative activity against human HeLa cells by MTT assay; format: functional, cell-based
[29] = tested on: K562/A02; test: Antiproliferative activity against human K562/A02 cells by MTT assay; format: functional, cell-based
[30] = tested on: K562; test: Antiproliferative activity against human K562 cells by MTT assay; format: functional, cell-based
[31] = tested on: K562; test: Cytotoxicity against human K562 cells by SRB assay; format: functional, cell-based
[32] = tested on: K562/A02; test: Cytotoxicity against human K562/A02 cells by SRB assay; format: functional, cell-based
[33] = tested on: HOS; test: Cytotoxicity against human HOS cells by MTT assay; format: functional
[34] = tested on: LoVo; test: Cytotoxicity against human LoVo cells by MTT assay; format: functional, cell-based
[35] = tested on: MCF7; test: Cytotoxicity against human MCF7 cells by MTT assay; format: functional, cell-based
[36] = tested on: HeLa; test: Cytotoxicity against human HeLa cells by MTT assay; format: functional, cell-based
[37] = tested on: KB; test: Cytotoxicity against human KB cells by MTT assay; format: functional, cell-based
[38] = Cytotoxicity against human KBv200 cells by MTT assay; format: functional, cell-based; details: KBv200, Uterine cervix
[39] = tested on: K562/Adr; test: Antiproliferative activity against human K562/ADR cells incubated for 72 hrs by CCK8 assay; format: functional, cell-based
[40] = tested on: BGC-823; test: Antiproliferative activity against human BGC-823 cells incubated for 72 hrs by MTT assay; format: functional, cell-based; details: BGC-823, 72 h
[41] = tested on: KB; test: Cytotoxicity against human KB cells incubated for 72 hrs by SRB method; format: functional, cell-based
[42] = tested on: KB; test: Cytotoxicity against human Vincristine-resistant KB cells incubated for 72 hrs by SRB method; format: functional, cell-based
[43] = tested on: HCT-116; test: Antiproliferative activity against human HCT116 cells incubated for 3 days by MTT assay; format: functional, cell-based; details: HCT-116, 72 h
[44] = tested on: A549; test: Antiproliferative activity against human A549 cells incubated for 3 days by MTT assay; format: functional, cell-based; details: A549, 72 h
[45] = tested on: HepG2; test: Cytotoxicity against human HepG2 cells incubated for 24 hrs by CCK8 assay; format: functional, cell-based; details: HepG2, 24 h
[46] = tested on: HeLa; test: Cytotoxicity against human HeLa cells incubated for 24 hrs by CCK8 assay; format: functional, cell-based
[47] = tested on: A549; test: Cytotoxicity against human A549 cells incubated for 24 hrs by CCK8 assay; format: functional, cell-based; details: A549, 24 h
[48] = tested on: MCF7; test: Cytotoxicity against human MCF7 cells incubated for 24 hrs by CCK8 assay; format: functional, cell-based; details: MCF7, 24 h
[49] = Cytotoxicity against PBMC (unknown origin) incubated for 24 hrs by CCK8 assay
[50] = tested on: L02; test: Cytotoxicity against human L02 cells incubated for 24 hrs by CCK8 assay; format: functional, cell-based; details: L02, 24 h
[51] = tested on: HL-60; test: Antiproliferative activity against human HL-60 cells by MTT assay; format: functional, cell-based
[52] = tested on: SMMC-7721; test: Antiproliferative activity against human SMMC-7721 cells by MTT assay; format: functional, cell-based
[53] = tested on: A549; test: Antiproliferative activity against human A549 cells by MTT assay; format: functional, cell-based
[54] = tested on: SW480; test: Antiproliferative activity against human SW480 cells by MTT assay; format: functional, cell-based
[55] = time 5-1440 min, dose 2.5 mg/kg

With COc1cc(/C=C/c2ccc(OCC(=O)O[C@H]3c4cc5c(cc4[C@@H](c4cc(OC)c(OC)c(OC)c4)[C@H]4C(=O)OC[C@@H]43)OCO5)cc2)cc(OC)c1 as the molecule, how does the pIC50 [1] read?
The pIC50 was 6.46.

What about the pIC50 [2] of the same molecule?
The pIC50 was 7.09.

And the “Ratio IC50” value [3]?
Its value is 3.6.

What about the “Ratio IC50” value [4] of the same molecule?
Its value is 34.2.

With COc1cc([C@@H]2c3cc4c(cc3[C@@H](NCC(F)(F)[C@]3(O)O[C@H](CO)[C@@H](O)[C@H](O)[C@H]3O)[C@H]3COC(=O)[C@H]23)OCO4)cc(OC)c1OC as the molecule, how does the half-life [5] read?
Its half-life is 67.8 min.

And the MRT [6]?
The MRT was 16.2 min.

What about the C0 ([7]; rat, plasma, iv, time 5-1440 min, dose 2.5 mg/kg, read-out: C0) of the same molecule?
Its C0 is 8.78 µg/mL.

And the AUC(0-inf) ([8]; 2.5 mg/kg)?
Its AUC(0-inf) is 2.21 µg·h/mL.

And the clearance [9, 55]?
The clearance was 1.14 L/h/kg.

With COc1cc([C@@H]2c3cc4c(cc3[C@@H](O[C@@H]3O[C@@H]5CO[C@@H](C)O[C@H]5[C@H](O)[C@H]3O)[C@H]3COC(=O)[C@H]23)OCO4)cc(OC)c1O [ETOPOSIDE] as the molecule, how does the pIC50 [10] read?
Its pIC50 is less than 6.04.

And the pIC50 [11]?
Its pIC50 is less than 6.04.

What about the pIC50 [12] of the same molecule?
The pIC50 was less than 6.04.

What about the pIC50 [13] of the same molecule?
Its pIC50 is less than 6.04.

What about the pIC50 [14] of the same molecule?
The pIC50 was 5.47.

What about the Activity [15] of the same molecule?
Its Activity is 12.8%.

What about the pIC50 [16] of the same molecule?
Its pIC50 is 5.09.

What about the pIC50 [17] of the same molecule?
The pIC50 was 6.74.

And the pIC50 [18]?
The pIC50 was 5.97.

And the pIC50 [19]?
Its pIC50 is 6.51.

And the pIC50 [20]?
Its pIC50 is 6.51.

And the pIC50 [21]?
Its pIC50 is 4.83.

What about the pIC50 [22] of the same molecule?
Its pIC50 is 5.97.

And the pIC50 [23]?
The pIC50 was 5.97.

And the pIC50 [24]?
Its pIC50 is 5.97.

And the pIC50 [25]?
The pIC50 was 6.12.

And the pIC50 [26]?
Its pIC50 is 6.51.

And the pIC50 [27]?
Its pIC50 is 6.51.

And the pIC50 [28]?
The pIC50 was 6.51.

What about the pIC50 [29] of the same molecule?
Its pIC50 is 5.70.

What about the pIC50 [30] of the same molecule?
The pIC50 was 4.64.

And the pIC50 [31]?
The pIC50 was 5.70.

And the GI50 [32]?
The GI50 was 1.08 µM.

And the GI50 [33]?
Its GI50 is 36.6 µM.

What about the pIC50 [34] of the same molecule?
The pIC50 was 5.77.

And the pIC50 [35]?
Its pIC50 is 5.77.

And the pIC50 [36]?
Its pIC50 is 5.77.

What about the pIC50 [37] of the same molecule?
Its pIC50 is 5.77.

And the pIC50 [38]?
Its pIC50 is 5.77.

And the pIC50 [39]?
The pIC50 was 6.38.

And the pIC50 [40]?
The pIC50 was 5.54.

And the pIC50 [41]?
Its pIC50 is 5.76.

And the pIC50 [42]?
Its pIC50 is 5.64.

What about the C0 ([7]; Rattus norvegicus) of the same molecule?
The C0 was 16.8 µM.

And the AUC [8, 55]?
Its AUC is 3.18 µg·h/mL.

And the AUC ([9]; 2.5 mg/kg)?
Its AUC is 0.933 µg·h/mL.

What about the pIC50 [43] of the same molecule?
Its pIC50 is 5.31.

What about the pIC50 [44] of the same molecule?
The pIC50 was 5.31.

With COc1cc([C@@H]2c3cc4c(cc3[C@H](OC(=O)c3c[nH]c5ccccc35)[C@H]3COC(=O)[C@H]23)OCO4)cc(OC)c1OC as the molecule, how does the pIC50 [45] read?
The pIC50 was 5.71.

And the pIC50 [46]?
Its pIC50 is 5.71.

What about the pIC50 [47] of the same molecule?
The pIC50 was 5.71.

What about the pIC50 [48] of the same molecule?
The pIC50 was 5.71.

What about the pIC50 [49] of the same molecule?
The pIC50 was 4.12.

What about the pIC50 [50] of the same molecule?
The pIC50 was 4.05.

With COc1cc([C@@H]2c3cc4c(cc3[C@@H](n3cc(CO[C@@H]5O[C@H](CO[C@@H]6O[C@H](CO)[C@@H](O)[C@H](O)[C@H]6O)[C@@H](O)[C@H](O)[C@H]5O)nn3)[C@H]3COC(=O)[C@H]23)OCO4)cc(OC)c1OC as the molecule, how does the pIC50 [35] read?
The pIC50 was 6.17.

What about the pIC50 [51] of the same molecule?
Its pIC50 is 6.17.

And the pIC50 [52]?
Its pIC50 is 6.17.

What about the pIC50 [53] of the same molecule?
The pIC50 was 6.17.

What about the pIC50 [54] of the same molecule?
The pIC50 was 6.17.
